{
  "source": "patent US5160526A",
  "about": "“Alkene stabilizers for 3-isothiazolone compounds” (priority 1991, dated 1992)",
  "key": {"[1]": {"type": "physicochemical", "settings": "for 2-Methyl (%) / 5-Chloro (%): 2-propanol, 55° C", "method": "Varying amounts of DHP were added and the vials put in a 55° C. oven. Active ingredient analysis was done periodically."}, "[2]": {"type": "physicochemical", "settings": "for 2-Methyl (%) / 5-Chloro (%): DPG, 55° C", "method": "This solution was distributed into 6 vials (3 g each) and varying amounts of cyclohexene were added. The vials were then heated at 55° C. and analyzed periodically."}, "[3]": {"experiment": "Stabilization of 5-Chloro and 2-Methyl mixture by norbornene in 2-propanol, 55° C oven", "type": "physicochemical", "settings": "2-propanol, 55° C", "source_text": "This solution was distributed into 6 vials and varying amounts of norbornene added."}, "[4]": {"settings": "2-propanol + 2% water, 55° C", "method": "A solution of 5-chloro-2methyl-3-isothiazolone (\"5-Chloro\") and 2-methyl-3-isothiazolone (\"2-Methyl\") (3.11 g) was prepared in 2-propanol (12.1 g). This solution was distributed in 6 vials. Water (2%) and varying amounts of norbornene were then added. These were then put in a 55° C. oven and analyzed periodically."}, "[5]": {"experiment": "Stabilization of 5-Chloro and 2-Methyl mixture by norbornene in dipropylene glycol containing 0.5% water, 55° C oven", "type": "physicochemical", "settings": "DPG (0.5% water)", "method": "To 19.9 g of dipropylene glycol was added 0.1 g of water. […] This solution was distributed into 6 vials and varying amounts of norbornene were added."}},
  "note": "Like-named read-outs stand apart in the source and are kept apart here.",
  "data": [
    {"smiles": "C1=COCCC1", "note": "[DHP, 3,4-Dihydro-2H-pyran]", "values": [
      {"measurement": "stability imparted to isothiazolones (in words)", "setting": "[1]", "result": "imparts no stability"}
    ]},
    {"smiles": "C1=CCCCC1", "note": "[cyclohexene]", "values": [
      {"measurement": "stabilizer function (in words)", "setting": "[2]", "result": "functions as a stabilizer"}
    ]},
    {"smiles": "Cn1sccc1=O", "note": "[2-methyl-3-isothiazolone]", "values": [
      {"measurement": "% Remaining After X Days", "setting": "[3]; 0% norbornene, 0 days", "result": 4.9, "unit": "%"},
      {"measurement": "% Remaining After X Days", "setting": "[3]; 0% norbornene, 2 days", "result": 0.4, "unit": "%"},
      {"measurement": "% Remaining After X Days", "setting": "[3]; 0% norbornene, 30 days", "result": 0.7, "unit": "%"},
      {"measurement": "stabilization with norbornene (in words)", "setting": "[3]", "result": "completely stabilized"},
      {"measurement": "% Remaining After X Days", "setting": "[3]; 3% norbornene, 0 days", "result": 4.7, "unit": "%"},
      {"measurement": "% Remaining After X Days", "setting": "[3]; 3% norbornene, 2 days", "result": 4.4, "unit": "%"},
      {"measurement": "% Remaining After X Days", "setting": "[3]; 3% norbornene, 30 days", "result": 3.9, "unit": "%"},
      {"measurement": "% Remaining After X Days", "setting": "[3]; 6.3% norbornene, 0 days", "result": 4.5, "unit": "%"},
      {"measurement": "% Remaining After X Days", "setting": "[3]; 6.3% norbornene, 2 days", "result": 4.3, "unit": "%"},
      {"measurement": "% Remaining After X Days", "setting": "[3]; 6.3% norbornene, 30 days", "result": 4.0, "unit": "%"},
      {"measurement": "% Remaining After X Days", "setting": "[3]; 11.8% norbornene, 0 days", "result": 4.2, "unit": "%"},
      {"measurement": "% Remaining After X Days", "setting": "[3]; 11.8% norbornene, 2 days", "result": 4.0, "unit": "%"},
      {"measurement": "% Remaining After X Days", "setting": "[3]; 11.8% norbornene, 30 days", "result": 3.9, "unit": "%"},
      {"measurement": "% Remaining After X Days", "setting": "[3]; 16.7% norbornene, 0 days", "result": 4.0, "unit": "%"},
      {"measurement": "% Remaining After X Days", "setting": "[3]; 16.7% norbornene, 2 days", "result": 3.9, "unit": "%"},
      {"measurement": "% Remaining After X Days", "setting": "[3]; 16.7% norbornene, 30 days", "result": 3.7, "unit": "%"},
      {"measurement": "% Remaining After X Days", "setting": "[3]; 21.0% norbornene, 0 days", "result": 3.9, "unit": "%"},
      {"measurement": "% Remaining After X Days", "setting": "[3]; 21.0% norbornene, 2 days", "result": 3.8, "unit": "%"},
      {"measurement": "% Remaining After X Days", "setting": "[3]; 21.0% norbornene, 30 days", "result": 3.7, "unit": "%"},
      {"measurement": "2-Methyl (%) / 5-Chloro (%)", "setting": "[4]; 0% norbornene, 0 days", "result": 1.7, "unit": "%"},
      {"measurement": "2-Methyl (%) / 5-Chloro (%)", "setting": "[4]; 0% norbornene, 7 days", "result": 0.22, "unit": "%"},
      {"measurement": "2-Methyl (%) / 5-Chloro (%)", "setting": "[4]; 1.2% norbornene, 0 days", "result": 2.3, "unit": "%"},
      {"measurement": "2-Methyl (%) / 5-Chloro (%)", "setting": "[4]; 1.2% norbornene, 7 days", "result": 0.14, "unit": "%"},
      {"measurement": "2-Methyl (%) / 5-Chloro (%)", "setting": "[4]; 2.3% norbornene, 0 days", "result": 2.3, "unit": "%"},
      {"measurement": "2-Methyl (%) / 5-Chloro (%)", "setting": "[4]; 2.3% norbornene, 7 days", "result": 0.08, "unit": "%"},
      {"measurement": "2-Methyl (%) / 5-Chloro (%)", "setting": "[4]; 4.2% norbornene, 0 days", "result": 2.2, "unit": "%"},
      {"measurement": "2-Methyl (%) / 5-Chloro (%)", "setting": "[4]; 4.2% norbornene, 7 days", "result": 0.10, "unit": "%"},
      {"measurement": "2-Methyl (%) / 5-Chloro (%)", "setting": "[4]; 8.1% norbornene, 0 days", "result": 2.2, "unit": "%"},
      {"measurement": "2-Methyl (%) / 5-Chloro (%)", "setting": "[4]; 8.1% norbornene, 7 days", "result": 0.10, "unit": "%"},
      {"measurement": "2-Methyl (%) / 5-Chloro (%)", "setting": "[4]; 14.1% norbornene, 0 days", "result": 2.0, "unit": "%"},
      {"measurement": "2-Methyl (%) / 5-Chloro (%)", "setting": "[4]; 14.1% norbornene, 7 days", "result": 0.97, "unit": "%"},
      {"measurement": "2-Methyl (%) / 5-Chloro (%)", "setting": "[4]; 14.1% norbornene, 21 days", "result": 0.1, "unit": "%"},
      {"measurement": "2-Methyl (%) / 5-Chloro (%)", "setting": "[5]; 0% norbornene, 0 days", "result": 4.5, "unit": "%"},
      {"measurement": "2-Methyl (%) / 5-Chloro (%)", "setting": "[5]; 0% norbornene, 14 days", "result": 0.6, "unit": "%"},
      {"measurement": "2-Methyl (%) / 5-Chloro (%)", "setting": "[5]; 1.6% norbornene, 0 days", "result": 4.4, "unit": "%"},
      {"measurement": "2-Methyl (%) / 5-Chloro (%)", "setting": "[5]; 1.6% norbornene, 14 days", "result": 0.18, "unit": "%"},
      {"measurement": "2-Methyl (%) / 5-Chloro (%)", "setting": "[5]; 3.2% norbornene, 0 days", "result": 4.3, "unit": "%"},
      {"measurement": "2-Methyl (%) / 5-Chloro (%)", "setting": "[5]; 3.2% norbornene, 14 days", "result": 3.3, "unit": "%"},
      {"measurement": "2-Methyl (%) / 5-Chloro (%)", "setting": "[5]; 3.2% norbornene, 30 days", "result": 0.6, "unit": "%"},
      {"measurement": "2-Methyl (%) / 5-Chloro (%)", "setting": "[5]; 6.5% norbornene, 0 days", "result": 4.2, "unit": "%"},
      {"measurement": "2-Methyl (%) / 5-Chloro (%)", "setting": "[5]; 6.5% norbornene, 14 days", "result": 3.7, "unit": "%"},
      {"measurement": "2-Methyl (%) / 5-Chloro (%)", "setting": "[5]; 6.5% norbornene, 30 days", "result": 2.7, "unit": "%"},
      {"measurement": "2-Methyl (%) / 5-Chloro (%)", "setting": "[5]; 9.0% norbornene, 0 days", "result": 4.1, "unit": "%"},
      {"measurement": "2-Methyl (%) / 5-Chloro (%)", "setting": "[5]; 9.0% norbornene, 14 days", "result": 3.7, "unit": "%"},
      {"measurement": "2-Methyl (%) / 5-Chloro (%)", "setting": "[5]; 9.0% norbornene, 30 days", "result": 3.3, "unit": "%"},
      {"measurement": "2-Methyl (%) / 5-Chloro (%)", "setting": "[5]; 14.3% norbornene, 0 days", "result": 4.4, "unit": "%"},
      {"measurement": "2-Methyl (%) / 5-Chloro (%)", "setting": "[5]; 14.3% norbornene, 14 days", "result": 3.6, "unit": "%"},
      {"measurement": "2-Methyl (%) / 5-Chloro (%)", "setting": "[5]; 14.3% norbornene, 30 days", "result": 3.3, "unit": "%"},
      {"measurement": "2-Methyl (%) / 5-Chloro (%)", "setting": "[2]; 0% cyclohexene, 0 days", "result": 5.0, "unit": "%"},
      {"measurement": "2-Methyl (%) / 5-Chloro (%)", "setting": "[2]; 0% cyclohexene, 13 days", "result": 0.49, "unit": "%"},
      {"measurement": "2-Methyl (%) / 5-Chloro (%)", "setting": "[2]; 3.2% cyclohexene, 0 days", "result": 4.7, "unit": "%"},
      {"measurement": "2-Methyl (%) / 5-Chloro (%)", "setting": "[2]; 3.2% cyclohexene, 13 days", "result": 0.35, "unit": "%"},
      {"measurement": "2-Methyl (%) / 5-Chloro (%)", "setting": "[2]; 6.8% cyclohexene, 0 days", "result": 4.6, "unit": "%"},
      {"measurement": "2-Methyl (%) / 5-Chloro (%)", "setting": "[2]; 6.8% cyclohexene, 13 days", "result": 0.23, "unit": "%"},
      {"measurement": "2-Methyl (%) / 5-Chloro (%)", "setting": "[2]; 9.1% cyclohexene, 0 days", "result": 4.5, "unit": "%"},
      {"measurement": "2-Methyl (%) / 5-Chloro (%)", "setting": "[2]; 9.1% cyclohexene, 13 days", "result": 0.95, "unit": "%"},
      {"measurement": "2-Methyl (%) / 5-Chloro (%)", "setting": "[2]; 9.1% cyclohexene, 30 days", "result": 0.66, "unit": "%"},
      {"measurement": "2-Methyl (%) / 5-Chloro (%)", "setting": "[2]; 11.8% cyclohexene, 0 days", "result": 4.4, "unit": "%"},
      {"measurement": "2-Methyl (%) / 5-Chloro (%)", "setting": "[2]; 11.8% cyclohexene, 13 days", "result": 0.59, "unit": "%"},
      {"measurement": "2-Methyl (%) / 5-Chloro (%)", "setting": "[2]; 11.8% cyclohexene, 30 days", "result": 0.62, "unit": "%"},
      {"measurement": "2-Methyl (%) / 5-Chloro (%)", "setting": "[2]; 16.7% cyclohexene, 0 days", "result": 4.3, "unit": "%"},
      {"measurement": "2-Methyl (%) / 5-Chloro (%)", "setting": "[2]; 16.7% cyclohexene, 13 days", "result": 2.6, "unit": "%"},
      {"measurement": "2-Methyl (%) / 5-Chloro (%)", "setting": "[2]; 16.7% cyclohexene, 30 days", "result": 0.46, "unit": "%"},
      {"measurement": "2-Methyl (%) / 5-Chloro (%)", "setting": "[1]; 0% DHP, 0 days", "result": 5.3, "unit": "%"},
      {"measurement": "2-Methyl (%) / 5-Chloro (%)", "setting": "[1]; 0% DHP, 12 days", "result": 0.4, "unit": "%"},
      {"measurement": "2-Methyl (%) / 5-Chloro (%)", "setting": "[1]; 3.5% DHP, 0 days", "result": 5.1, "unit": "%"},
      {"measurement": "2-Methyl (%) / 5-Chloro (%)", "setting": "[1]; 3.5% DHP, 12 days", "result": 0.7, "unit": "%"},
      {"measurement": "2-Methyl (%) / 5-Chloro (%)", "setting": "[1]; 6.3% DHP, 0 days", "result": 5.0, "unit": "%"},
      {"measurement": "2-Methyl (%) / 5-Chloro (%)", "setting": "[1]; 6.3% DHP, 12 days", "result": 0.6, "unit": "%"},
      {"measurement": "2-Methyl (%) / 5-Chloro (%)", "setting": "[1]; 11.8% DHP, 0 days", "result": 4.2, "unit": "%"},
      {"measurement": "2-Methyl (%) / 5-Chloro (%)", "setting": "[1]; 11.8% DHP, 12 days", "result": 0.7, "unit": "%"},
      {"measurement": "2-Methyl (%) / 5-Chloro (%)", "setting": "[1]; 16.7% DHP, 0 days", "result": 4.4, "unit": "%"},
      {"measurement": "2-Methyl (%) / 5-Chloro (%)", "setting": "[1]; 16.7% DHP, 12 days", "result": 0.7, "unit": "%"},
      {"measurement": "2-Methyl (%) / 5-Chloro (%)", "setting": "[1]; 21.1% DHP, 0 days", "result": 4.2, "unit": "%"},
      {"measurement": "2-Methyl (%) / 5-Chloro (%)", "setting": "[1]; 21.1% DHP, 12 days", "result": 0.6, "unit": "%"}
    ]}
  ]
}
